{
  "source": "patent US11306098B2",
  "about": "“Substituted pyrrolo[1,2-a]pyrazines and pyrrolo[1,2-a][1,4]diazepines as TREX1 inhibitors” (VENENUM BIODESIGN, LLC, priority 2019, dated 2022)",
  "key": {"cleaved human TREX1": {"target": "cleaved human TREX1 (Homo sapiens (Human), UniProt Q9NSU2)", "sequence (Q9NSU2 1-242)": "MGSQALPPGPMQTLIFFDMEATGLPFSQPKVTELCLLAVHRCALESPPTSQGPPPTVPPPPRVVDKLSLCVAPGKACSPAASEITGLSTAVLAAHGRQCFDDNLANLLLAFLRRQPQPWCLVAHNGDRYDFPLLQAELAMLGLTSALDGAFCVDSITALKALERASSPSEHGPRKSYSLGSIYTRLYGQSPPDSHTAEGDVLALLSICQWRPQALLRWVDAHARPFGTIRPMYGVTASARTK", "assay": "TREX1 Thermal Shift Binding Assay (human)", "settings": "assay buffer, 100 μM compound, 5 μM TREX1; read-out: Thermal shift cleaved human TREX1, (ΔTm ° C.) Assay buffer", "protocol": "Example B is a protein thermal shift assay used to assess the binding of TREX1 inhibitors to TREX1 protein. In this assay, TREX1 protein unfolding with increasing temperature was measured in the presence and absence of TREX1 inhibitors by following the increase in fluorescence of a thiol-reactive dye (e.g BODIPY FL-cystine) as it reacts with exposed TREX1 cysteine residues. The assay was conducted using human (SEQ ID NO: 1), or murine (SEQ ID NO: 2) TREX1 protein constructs.\nThe thermal shift assays used recombinant protein corresponding to human (SEQ ID NO: 1) and murine (SEQ ID NO: 2) TREX1. The protein encoding plasmid contained a N-terminal MBP (maltose binding protein) tag followed by the TREX1 coding sequence within the pMAL-c5E vector. The plasmid was transfected into a BL21 (DE3) E. coli expression strain. Protein was purified from the bacterial lysate using an Amylose resin column. The MBP tag was cleaved from the purified protein using recombinant enterokinase (EMD Millipore #69066-3). The cleaved TREX1 protein was further purified on a Q-Sepharose column followed by a heparin column.\nBinding of compounds to both human and murine TREX1 were measured by protein thermal shift assays. (Huynh K, Partch C L. Current Protocols in Protein Science: Analysis of protein stability and ligand interactions by thermal shift assay. Current protocols in protein science/editorial board, John E Coligan. [et al]. 2015; 79:28.9.1-28.9.14. doi:10.1002/0471140864.ps2809s79.). Thermal shift assays were conducted in sealed 96-well PCR plates containing 5 μM TREX1 protein, 100 μM compound, and 2 μM BODIPY FL-cystine (Sigma) in either 20 μL assay buffer (20 mM Tris, 7.5, 5 mM MgCl2, 0.002% Triton X-100) or 20 μL phosphate buffered saline (PBS). Using a RT-qPCR machine (Mx3005P, Stratagene) changes in fluorescence (excitation at 492 nm and emission at 516 nm) were monitored as temperature was increased from 25° C. to 96° C. at a rate of 1° C. every 2 minutes. Tm values were calculated from the first derivative plot of fluorescence intensity versus temperature. The results shown in Table 6 indicate the examples bind to human TREX1 and murine TREX1. ND indicates assay was not done."}, "murine TREX1": {"target": "murine TREX1 (Mus musculus (Mouse), UniProt Q91XB0)", "sequence (Q91XB0 1-242)": "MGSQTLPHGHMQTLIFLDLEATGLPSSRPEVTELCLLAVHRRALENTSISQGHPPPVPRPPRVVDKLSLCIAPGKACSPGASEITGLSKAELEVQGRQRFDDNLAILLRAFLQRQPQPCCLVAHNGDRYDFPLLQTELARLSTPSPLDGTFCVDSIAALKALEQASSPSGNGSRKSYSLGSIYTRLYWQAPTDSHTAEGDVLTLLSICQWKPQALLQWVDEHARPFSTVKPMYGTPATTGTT", "assay": "TREX1 Exonuclease Assay (murine enzyme)", "type": "biochemical", "settings": "murine TREX1 1 nM, FAM/BHQ1-labeled DNA oligonucleotide", "protocol": "The TREX1 Exonuclease assay is an exemplary in vitro assay for measuring the activity of the TREX1 inhibitors of the present invention. In this assay, TREX1 exonuclease activity was evaluated by measuring the increase in fluorescence resulting from TREX1-catalyzed removal of a quencher from the 3′ end of a FAM-labeled DNA oligonucleotide (5′FAM-CCA CGA GAG CGT-BHQ1-3′). The assay was conducted using Wild Type (WT) human or murine TREX1 enzyme constructs corresponding to amino acids 55-297 of UniProt ID Q9NSU2-1 (SEQ ID NO: 1), or amino acids 1-242 of UniProt ID Q91XB0-1 (SEQ ID NO: 2), respectively. See, e.g., Example A.\nFor human TREX1, the nucleotide sequence of the gene construct was codon optimized for expression in the bacterial host. The sequence was incorporated into the pMAL-c5e vector (NEB) downstream of a solubility-promoting MBP (maltose binding protein) fusion partner. The fusion protein product was expressed in E. coli strain BL21 (DE3) (Millipore) and purified in a series of chromatographic steps. Initial steps were conducted using a dextrin sepharose affinity column followed by a Q-sepharose ion exchange column (both GE Healthcare). After the second column the MBP partner was removed by incubation with enterokinase (NEB). Further purification was carried out with the second application of a Q-sepharose column followed by a Superdex 75 (GE Healthcare) size exclusion column. Finally, a heparin sepharose column (GE Healthcare) was applied to remove contaminating nucleotides. Similar methods were used in the preparation of the murine TREX1 enzyme and are described in Example B set forth below.\nTo evaluate the effect of compounds on TREX1 activity, test compounds were serially diluted (11-point, 3-fold) from 10 mM stock solutions and delivered to 384-well low-volume assay plates in 80 nL DMSO using an acoustic dispenser. Next, 4 μL of human TREX1 (0.5 nM), or murine TREX1 (1 nM), diluted in assay buffer (20 mM Tris pH 7.5, 5 mM MgCl2, 100 μg/mL BSA, 0.002% Triton X-100, 2 mM DTT), was added to the assay plate. After incubating for 30 minutes, 4 μL of labeled DNA oligonucleotide (500 nM) in assay buffer was added to initiate TREX1 exonuclease activity. The reaction was allowed to proceed for 45 minutes at room temperature prior to the addition of 4 μL of 150 mM EDTA to halt TREX1 activity. Assay plates were equilibrated for an additional 30 minutes and read on an EnVision Plate Reader (Perkin Elmer) to measure fluorescence emission at 535 nm following excitation at 485 nm. Fluorescence was plotted as a function of log molar compound concentration and fit to four-parameter dose-response equation to determine compound IC50."}},
  "note": "pIC50: −log10 of the molar value.",
  "data": [
    {"molecule": "N[C@@H]1C[C@H]2C(=O)N([C@H](CCC(=O)O)C(=O)NCc3ccc(Cl)c(Cl)c3)CCC(CCc3ccccc3)N2C1", "note": "(some centres unmarked) [Example 14B]", "values": [
      {"measurement": "ΔTm at 100 µM", "setting": "cleaved human TREX1", "value": "> 8", "unit": "°C"},
      {"measurement": "pIC50", "setting": "murine TREX1", "value": "> 6.00"}
    ]}
  ]
}
